Patent publication US20260200987A1, “PEPTIDE FOR CARTILAGE REGENERATION, AND USES THEREOF” (CAREGEN CO., LTD., priority 2022, published 2026)
Ends that are not written are not given here.

What was measured:
[1] = tested on: human adipose-derived mesenchymal stem cells (AD-MSC); assay: SRB staining, cell morphology changes; format: cell-based; conditions: peptide at different concentrations, FIG. 1 and FIG. 2
Procedure: Additionally, for SRB staining, after suctioning the medium from the plate, 60 μL of 3.7% formalin was added to the 96-well plate to be stained and fixed for 1 minute. After suctioning 3.7% formalin, 70 μL of SRB staining solution (sulforhodamine B sodium salt (sigma, S9012): 0.2 g in 100 mL DDW) was added and stained. The plate was covered with aluminum foil, blocked from light, and incubated overnight at room temperature. After washing with 100 μL of 1% acetic acid using a multi-pipette, it was dried and observed under a microscope.

[2] = tested on: human adipose-derived mesenchymal stem cells (AD-MSC); assay: CCK-8 assay, cytotoxicity; format: cell-based; conditions: after 7 days, peptide at different concentrations, FIG. 3 and FIG. 4
Procedure: Specifically, AD-MSC cells were seeded in 96-well plates at a density of 1.5×10^3 cells/well and cultured in Dulbecco's Modified Eagle's Medium (DMEM) supplemented with 10% FBS for 24 hours. Then, the medium was replaced with DMEM medium supplemented with 5% FBS, and Peptide-1 or Peptide-2 was treated at different concentrations, respectively. Subsequently, the medium was replaced every 3 days and Peptide-1 or Peptide-2 was treated at different concentrations, respectively. To confirm CCK-8 activity, after 7 days, CCK-8 (Dojindo, CCK-8 kit) solution was added at 1/10 volume of the culture medium, and incubated for 2 hours. The culture medium was sampled and CCK-8 activity was confirmed at a wavelength of 450 nm using a microplate reader.

| Sequence | change in cell morphology in SRB staining [1] | toxicity toward adipose-derived mesenchymal stem cells (CCK-8 activity) [2] |
| --- | --- | --- |
| RIAFLWVRIK [Peptide-1, RIAFLWVRIK] | did not show any change in cell morphology | did not exhibit toxicity |
| FCRPRNDFF [Peptide-2, FCRPRNDFF] | did not show any change in cell morphology | did not exhibit toxicity |
